“Also recorded” adds a separate entry of the source. Numbered stars: 1 amine (or outer) side, 2 acyl side, 3 side chain; on linkers, the order of the positions; unused ones are H or OH. Bridge positions count the residues as written; N and C are the ends. Square brackets hold non-standard residues; d marks the D form. Peptide text beside a SMILES is read from it. * marks the point of attachment. Orn(4R-OH,5R-OCH2CH2NMe3+) = C[N+](C)(C)CCO[C@@H](N[*:3])[C@H](O)C[C@H](N[*:1])C(=O)[*:2]; pTerphenylCO(4''-OnC5H11) = CCCCCOc1ccc(-c2ccc(-c3ccc(C(=O)*)cc3)cc2)cc1; hTyr(3S-OH,4S-OH) = N[C@H](C(=O)O)[C@H](O)[C@@H](O)c1ccc(O)cc1; Pro(3S-OH,4S-Me) = C[C@H]1CN[C@H](C(=O)O)[C@H]1O; Hyp = O=C(O)[C@@H]1C[C@@H](O)CN1
What was measured:
BCRP = BCRP (Homo sapiens, UniProt Q9UNQ0); test: NC-160 substrate interaction, BCRP; type: in vitro ADME; details: efflux (ABC) transporter
Text: (§1) Microbiology Spectrum Supplementary materials
(§2) Table S 4Summary of initial in vitro assessments […]
(§3) whether rezafungin can induce CYP isoforms 1A2, 2B6, or 3A4. mRNA expression) of CYP1A2 and CYP2B6, and, in the case of […]
(§4) Abbreviations: ABC = ATP binding cassette; BCRP = breast cancer resistance protein; BSEP = bile salt export pump; CYP = cytochrome P450; MATE = multidrug and toxic compound extrusion; MDCK = Madin-Darby canine kidney; MDR = multidrug resistance protein; mRNA = messenger ribonucleic acid; OAT = organic anion transporter; OATP = organic anion transporter protein; OCT – organic cation transporter; OCTN = organic cation transporter novel; P-gp = P-glycoprotein; SLC = solute carrier.

human P-gp [1] = molecular target: T1, human P-gp (Homo sapiens, UniProt P08183); test: NC-152 transporter inhibition, P-gp; type: in vitro ADME; details: in vitro cell test system
Text: (§5) Abbreviations: ABC = ATP binding cassette; BCRP = breast cancer resistance protein; BSEP = bile salt export pump; CYP = cytochrome P450; MATE =
(§6) multidrug and toxic compound extrusion; MDCK = Madin-Darby canine kidney; MDR = multidrug resistance protein; mRNA = messenger ribonucleic acid;
(§7) OAT = organic anion transporter; OATP = organic anion transporter protein; OCT – organic cation transporter; OCTN = organic cation transporter novel; P-gp =
(§8) P-glycoprotein; SLC = solute carrier.

CYP2C8 [2] = molecular target: T2, CYP2C8 (Homo sapiens, UniProt P10632); test: NC-013 CYP2C8 inhibition in human liver microsomes; type: in vitro ADME; design: in human liver microsomal preparations; from tissue; host or cells: human liver microsomes; details: read-out: IC50, CYP2C8 (weak inhibition)
T2 sequence (P10632 1-490): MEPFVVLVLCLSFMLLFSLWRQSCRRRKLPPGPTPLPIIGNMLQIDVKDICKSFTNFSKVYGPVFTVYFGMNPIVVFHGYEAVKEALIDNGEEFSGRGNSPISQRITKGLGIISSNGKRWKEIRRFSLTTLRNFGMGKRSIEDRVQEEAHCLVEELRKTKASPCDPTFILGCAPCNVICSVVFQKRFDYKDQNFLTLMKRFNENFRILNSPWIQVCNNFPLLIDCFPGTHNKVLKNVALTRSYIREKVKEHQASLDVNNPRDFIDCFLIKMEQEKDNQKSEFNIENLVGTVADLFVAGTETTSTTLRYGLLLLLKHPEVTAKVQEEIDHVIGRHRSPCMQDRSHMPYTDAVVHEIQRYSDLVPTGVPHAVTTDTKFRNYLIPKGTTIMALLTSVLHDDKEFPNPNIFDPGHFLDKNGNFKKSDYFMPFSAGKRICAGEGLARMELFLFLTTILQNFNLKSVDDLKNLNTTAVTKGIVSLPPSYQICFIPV
Text: as §5, §6, §7, §8

human P-gp [3] = molecular target: T1, human P-gp; test: NC-049 P-gp substrate potential in Caco-2 monolayers; type: in vitro ADME; details: with/without inhibitors
Text: as §1, §2, §3, §4

CYP2C8 [4] = molecular target: T2, CYP2C8; test: NC-012 CYP450 inhibition screening, recombinant CYP2C8; type: in vitro ADME; details: fluorogenic substrate, recombinant human CYP
Text: as §1, §2, §3, §4

CYP2B6 = CYP2B6 (Homo sapiens, UniProt P20813); details: human liver microsomes; 0.1 to 25 μM; NC-153
Text: as §1, §2, §3, §4

CYP1A2 = CYP1A2 (Homo sapiens, UniProt P05177); details: human liver microsomes; 0.1 to 25 μM; NC-153
Text: as §1, §2, §3, §4

CYP3A4 = CYP3A4 (Homo sapiens, UniProt P08684); details: human liver microsomes; midazolam and testosterone as substrates; 0.1 to 25 μM; NC-153
Text: as §1, §2, §3, §4

T1 sequence (P08183 whole entry): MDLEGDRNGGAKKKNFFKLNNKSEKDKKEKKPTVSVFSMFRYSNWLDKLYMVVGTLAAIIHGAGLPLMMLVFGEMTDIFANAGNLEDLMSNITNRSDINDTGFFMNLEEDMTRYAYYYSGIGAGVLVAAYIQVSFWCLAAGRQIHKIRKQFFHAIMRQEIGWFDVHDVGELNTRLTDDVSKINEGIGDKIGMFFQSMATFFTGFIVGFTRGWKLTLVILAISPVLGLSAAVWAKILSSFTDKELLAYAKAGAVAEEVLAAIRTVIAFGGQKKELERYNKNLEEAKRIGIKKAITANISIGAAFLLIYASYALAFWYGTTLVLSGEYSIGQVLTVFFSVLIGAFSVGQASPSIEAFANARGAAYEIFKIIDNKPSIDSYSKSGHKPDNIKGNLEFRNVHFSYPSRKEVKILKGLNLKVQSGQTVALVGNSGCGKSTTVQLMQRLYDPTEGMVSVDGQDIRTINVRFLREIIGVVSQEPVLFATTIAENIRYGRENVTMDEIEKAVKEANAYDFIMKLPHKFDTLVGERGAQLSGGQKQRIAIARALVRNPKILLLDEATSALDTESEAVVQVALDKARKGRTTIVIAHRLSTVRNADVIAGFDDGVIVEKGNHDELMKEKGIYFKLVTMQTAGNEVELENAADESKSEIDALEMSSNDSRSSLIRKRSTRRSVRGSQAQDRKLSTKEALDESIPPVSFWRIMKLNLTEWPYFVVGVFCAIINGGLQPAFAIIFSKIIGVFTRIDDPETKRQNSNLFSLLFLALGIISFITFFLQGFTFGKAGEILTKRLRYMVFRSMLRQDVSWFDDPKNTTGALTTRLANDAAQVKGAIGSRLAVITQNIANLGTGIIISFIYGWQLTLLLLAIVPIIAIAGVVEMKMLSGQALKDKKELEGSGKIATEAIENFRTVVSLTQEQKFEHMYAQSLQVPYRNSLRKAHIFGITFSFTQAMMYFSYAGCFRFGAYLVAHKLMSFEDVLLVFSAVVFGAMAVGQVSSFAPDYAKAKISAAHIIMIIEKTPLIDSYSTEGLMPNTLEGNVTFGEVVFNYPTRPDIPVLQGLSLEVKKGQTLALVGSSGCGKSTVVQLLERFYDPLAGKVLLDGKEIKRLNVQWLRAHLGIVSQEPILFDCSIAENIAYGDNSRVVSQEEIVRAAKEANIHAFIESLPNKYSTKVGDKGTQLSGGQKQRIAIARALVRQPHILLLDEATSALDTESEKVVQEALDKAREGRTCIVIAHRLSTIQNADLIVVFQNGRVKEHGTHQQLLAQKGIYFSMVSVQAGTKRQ
Chain of CYP3A4 (P08684 whole entry): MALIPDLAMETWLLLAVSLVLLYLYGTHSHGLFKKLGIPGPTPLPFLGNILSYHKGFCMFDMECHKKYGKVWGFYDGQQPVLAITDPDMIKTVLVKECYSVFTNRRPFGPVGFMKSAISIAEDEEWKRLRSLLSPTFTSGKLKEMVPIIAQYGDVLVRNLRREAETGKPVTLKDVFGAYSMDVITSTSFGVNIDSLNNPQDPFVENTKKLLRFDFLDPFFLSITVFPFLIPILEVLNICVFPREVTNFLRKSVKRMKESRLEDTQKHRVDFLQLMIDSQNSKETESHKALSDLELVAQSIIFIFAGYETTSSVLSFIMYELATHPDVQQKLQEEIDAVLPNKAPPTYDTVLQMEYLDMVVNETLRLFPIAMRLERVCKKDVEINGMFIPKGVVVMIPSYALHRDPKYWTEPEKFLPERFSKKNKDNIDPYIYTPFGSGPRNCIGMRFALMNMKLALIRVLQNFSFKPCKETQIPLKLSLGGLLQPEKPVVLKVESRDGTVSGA
Chain of CYP2B6 (P20813 whole entry): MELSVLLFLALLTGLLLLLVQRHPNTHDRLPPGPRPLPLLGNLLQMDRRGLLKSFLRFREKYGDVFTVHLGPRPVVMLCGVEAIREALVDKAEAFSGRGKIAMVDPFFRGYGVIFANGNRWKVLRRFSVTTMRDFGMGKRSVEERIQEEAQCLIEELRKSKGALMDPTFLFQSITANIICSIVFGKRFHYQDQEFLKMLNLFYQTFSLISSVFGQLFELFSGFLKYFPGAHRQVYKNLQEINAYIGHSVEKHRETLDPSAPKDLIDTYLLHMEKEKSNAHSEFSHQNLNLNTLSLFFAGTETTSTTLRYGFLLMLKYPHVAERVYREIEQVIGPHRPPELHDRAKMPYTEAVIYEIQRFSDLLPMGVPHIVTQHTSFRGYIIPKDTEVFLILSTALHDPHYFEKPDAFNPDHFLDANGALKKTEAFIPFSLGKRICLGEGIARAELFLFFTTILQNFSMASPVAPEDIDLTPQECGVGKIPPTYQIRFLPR
Chain of CYP1A2 (P05177 whole entry): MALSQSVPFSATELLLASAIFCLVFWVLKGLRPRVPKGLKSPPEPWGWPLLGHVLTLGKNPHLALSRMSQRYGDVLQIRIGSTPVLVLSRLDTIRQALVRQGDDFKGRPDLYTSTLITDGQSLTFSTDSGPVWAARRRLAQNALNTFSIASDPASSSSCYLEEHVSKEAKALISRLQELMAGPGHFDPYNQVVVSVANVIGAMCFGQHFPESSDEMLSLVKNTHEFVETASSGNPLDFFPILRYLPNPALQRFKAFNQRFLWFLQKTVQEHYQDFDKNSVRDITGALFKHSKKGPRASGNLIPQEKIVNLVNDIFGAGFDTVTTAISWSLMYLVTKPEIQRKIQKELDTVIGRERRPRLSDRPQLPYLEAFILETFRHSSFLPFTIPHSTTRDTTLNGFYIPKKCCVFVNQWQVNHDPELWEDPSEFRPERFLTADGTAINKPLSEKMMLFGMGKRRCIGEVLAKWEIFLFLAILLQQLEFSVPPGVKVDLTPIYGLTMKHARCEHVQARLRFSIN
Chain of BCRP (Q9UNQ0 whole entry): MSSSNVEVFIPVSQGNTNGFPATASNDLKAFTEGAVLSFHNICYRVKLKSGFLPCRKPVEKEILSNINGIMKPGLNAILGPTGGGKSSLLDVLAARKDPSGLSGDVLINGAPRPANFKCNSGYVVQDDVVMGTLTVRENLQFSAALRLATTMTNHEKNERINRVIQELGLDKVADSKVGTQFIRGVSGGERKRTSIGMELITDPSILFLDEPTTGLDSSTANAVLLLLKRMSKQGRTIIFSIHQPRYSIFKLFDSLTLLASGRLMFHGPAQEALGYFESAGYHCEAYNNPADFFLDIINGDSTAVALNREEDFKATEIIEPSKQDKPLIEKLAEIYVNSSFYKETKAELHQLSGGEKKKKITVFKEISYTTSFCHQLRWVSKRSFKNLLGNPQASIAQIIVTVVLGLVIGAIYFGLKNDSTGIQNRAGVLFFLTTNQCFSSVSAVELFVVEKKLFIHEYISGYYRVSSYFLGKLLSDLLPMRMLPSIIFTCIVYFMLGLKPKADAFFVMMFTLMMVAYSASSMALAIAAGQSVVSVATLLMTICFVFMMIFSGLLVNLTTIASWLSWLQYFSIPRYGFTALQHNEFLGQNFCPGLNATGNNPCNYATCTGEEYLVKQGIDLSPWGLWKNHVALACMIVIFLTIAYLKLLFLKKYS

**Q.** Which “substrate of BCRP” value (BCRP) does the source give for `CCCCCOc1ccc(-c2ccc(-c3ccc(C(=O)N[C@H]4C[C@@H](O)[C@@H](OCC[N+](C)(C)C)NC(=O)[C@@H]5[C@@H](O)[C@@H](C)CN5C(=O)[C@H]([C@@H](C)O)NC(=O)[C@H]([C@H](O)[C@@H](O)c5ccc(O)cc5)NC(=O)[C@@H]5C[C@@H](O)CN5C(=O)[C@H]([C@@H](C)O)NC4=O)cc3)cc2)cc1` [Rezafungin] ({pTerphenylCO(4''-OnC5H11)}-[Orn(4R-OH,5R-OCH2CH2NMe3+)]T[Hyp][hTyr(3S-OH,4S-OH)]T[Pro(3S-OH,4S-Me)]; lactam 1-C) here?
**A.** not a substrate

**Q.** What about the “inhibitor of probe substrate transport mediated via P-gp” value (human P-gp [1]) of the same compound?
**A.** determined to be an inhibitor; also recorded: could not be ruled out

**Q.** And the IC50 (CYP2C8 [2])?
**A.** > 25 µM

**Q.** And the “substrate of P-gp” value (human P-gp [3])?
**A.** not a substrate

**Q.** And the inhibition at 10 µM (CYP2C8 [4])?
**A.** 63%

**Q.** And the “time-dependent inhibitor of CYP2B6” value (CYP2B6)?
**A.** not a time-dependent inhibitor

**Q.** And the “time-dependent inhibitor of CYP1A2” value (CYP1A2)?
**A.** not a time-dependent inhibitor

**Q.** And the “time-dependent inhibitor of CYP3A4” value (CYP3A4)?
**A.** not a time-dependent inhibitor

From paper PMC10269561, “Absence of Clinically Meaningful Drug-Drug Interactions with Rezafungin: Outcome of Investigations” (Microbiology Spectrum, 2023)
